In assay [1] the target is HIV TAR RNA. Nature of the assay: Gel shift assay (EMSA) with fluorescein-labeled TAR RNA in the presence of poly(dI-dC). Type of assay: binding. The protocol:
The fluorescein-labeled TAR RNA (F-TAR-RNA) was purchased from Sigma. F-TAR-RNA was dissolved in diethyl pyrocarbonate treated H2O to give a 50 μM solution. Binding assays were performed at room temperature. Peptide and RNA were incubated in pH 7.4 buffer (10 μL) containing Tris-HCl (50 mM), KCl (50 mM), poly-dIdC (10 μg/mL), 2% glycerol, and Triton X-100 (0.05%). The F-TAR-RNA concentration was 100 nM. The samples were analyzed by loading into 12% native polyacrylamide gels in […] and electrophoresis was performed with 140 V at room temperature. Dried gels were scanned by the Typhoon TRIO+ Variable Mode Imager. Bands corresponding to the free and bound RNA were quantified using ImageQuant software. The apparent dissociation constants were globally derived from the quantified data assuming a 1:1 binding stoichiometry.
(Mobility shift assays separate free from complexed probe on a gel.)

Assay [2] concerns the target HIV TAR RNA. Nature of the assay: Fluorescence anisotropy binding of Tat peptides to fluorescein-labeled TAR RNA. The conditions noted are these: Table 2; read-out: KD, binding affinity of Tat-peptide and TAR RNA by fluorescence anisotropy assay. The protocol: The binding affinity of XaaTat peptides (Xaa=Agh, Arg and Agb) for TAR RNA was measured by fluorescence anisotropy using a Varian Cary Eclipse fluorescence spectrophotometer. The anisotropy (r) was calculated using the following equation: […]
where Ivv, Ivh, Ihh, Ihv are the fluorescence intensities with the excitation polarizer and emission polarizer is oriented perpendicular (Ivh and Ihv) and parallel (Ivv and Ihh) to the direction of the polarized excitation. The fluorescein-labeled TAR RNA (F-TAR-RNA) was excited at 490 nm and the polarized emissions were monitored at 512 nm. The slits were set at 10 nm for both excitation and emission. The integration time was 20 seconds. All data were measured in a Sub-Micro (Starna Cell, Inc.) with a starting volume of 160 μL. Each addition (1 μL) of XaaTat was equilibrated for two minutes before the fluorescence signal was recorded. All experiments were performed at room temperature in TKT buffer (TKT: 50 mM Tris-HCl, pH 7.4, 20 mM KCl and 0.02% Tween20). The initial concentration of F-TAR-RNA was 25 nM. The TKT solution and peptide stock solution were both equilibrated at room temperature more than 20 minutes before the experiment. The experiment was repeated three times independently. For every single point, three measurements were performed and the average value was used for deriving the apparent (apparent KD). The apparent for the peptide-RNA complex was derived by fitting the data assuming a 1:1 peptide-RNA stoichiometry. The fitting was performed using Kaleidagraph 3.52. (Synergy Software, CA).
A general note: Polarisation of emitted light reports the rotation of a fluorescent probe.

The test system of assay [3] is Jurkat cells. In words: Cellular uptake assay by flow cytometry. The format is cell-based. The conditions noted are these: for Mean fluorescence intensity: Jurkat cells. Here is the method: All apparatuses were sterilized by autoclave sterilizer, and the experimental surfaces were wiped with 70% ethanol. All operations were performed in a laminar flow hood. The number of cells was determined by a hemacytometer. There were 9 squares with 1.0 mm^2 area and 0.1 mm depth in the hemacytometer. The number of cells in the four corner squares was counted and averaged. The average was multiplied by 10^4 to obtain the number of cells in a 1 mL suspension. The cellular uptake experiments were performed using 8×10^5 cells. […] The cells were then washed with PBS (2 g/L KCl, 2 g/L KH2PO4, 80 g/L NaCl, 11.5 g/L Na2PO4) (2×400 μL) to remove the fetal bovine serum which might interfere with the proteolytic activity of trypsin. The cells were then incubated with 0.05% trypsin/EDTA in PBS for 5 minutes to remove the peptides which adhered to the cell surface rather than entry to the cell. The cells were washed with PBS (2×400 μL). The cells were then resuspended in 500λ PBS and transferred into the flow tube. The cells were terminated by adding Triton-X 100 to give the dead control group. Propidium iodide (PI) was added to all samples to stain the dead cells but should not stain the live cells. Fluorescence analysis for the Jurkat cells was performed with a flow cytometer (FACScan, Becton Dickinson Bioscience). The voltage of the photomultiplier tube for forward scatter, side scatter and propidium iodide was set to 270, 470, and 350, respectively. Live cells containing appropriate forward scatter and side scatter values were selected and gated as the P1 region for normal and live cells in the live control group. The minimum propidium iodide fluorescence intensity for the dead cells treated with propidium iodide in the P1 region was set as the threshold value for dead cells. In other words, cells with propidium iodide fluorescence below the threshold value would be deemed live cells. The fluorescence of 6-carboxyfluorescein was considered when the cell morphology was in the P1 region and the propidium iodide fluorescence intensity was lower than the threshold value. The 6-carboxyfluorescein fluorescence intensity was acquired for 10,000 events at room temperature. The data presented are the mean fluorescence intensity for the 10,000 cells. Each experiment was independently repeated at least three times.
Cellular uptake experiments were performed on Jurkat cells, because these cells belonged to a CD4+ helper T cell cancer cell line which was the target of HIV. Jurkat cells were incubated separately with various concentration (7, 30, 60, 120 μM) of Flu-XaaTat for 15 minutes at 37° C. in the presence of fetal bovine serum, and then treated with trypsin to remove cell-surface bound peptide.
On the technique in general: In flow cytometry, cells or beads pass a laser one at a time.

The test system of assay [4] is Jurkat cells. In words: Fluorescence microscope of live Jurkat cells. The format is cell-based. The following applies: 37° C.; for Cellular uptake seen in fluorescence microscopy images: 7 μM peptide, 15 minutes, fetal bovine serum, trypsin 5 minutes, FIG. 1; for Cellular uptake seen in fluorescence microscope images: 30 μM peptide, 5% CO2, 15 minutes, trypsinized 10 minutes, FIG. 7. Here is the method:
[…] After incubation, the suspension was centrifuged at 2200 rpm. The cells were washed with phosphate buffered saline (137 mM NaCl, 2.7 mM KCl, 10 mM sodium phosphate dibasic, 2 mM potassium phosphate monobasic, pH 7.4) twice to remove extracellular peptide. […] Finally, cells were resuspended in 500 μL PBS containing 1 μg/mL propidium iodide. The cells were then examined by a fluorescence microscope (Olympus IX71) (492/517 nm; excitation/observation).

Where [5] appears, read: in the presence of poly(dI-dC) at 25° C., Table 3, read-out: KD, dissociation constant of Tat-peptide and TAR RNA by gel shift assay.

For “Ac-Tyr-Gly-Arg-Lys-Lys-Arg-Arg-Gln-Arg-Cit-Arg-NH2 [Tat-Cit56]”, the Kd in assay [1] (setting [5]) amounted to 164 ± 40 nM; in assay [2], 55 ± 9 nM.

For “Ac-Tyr-Gly-Arg-Lys-Lys-Arg-Arg-Gln-Arg-Arg-Agp-NH2 [Ac-Agp57-Tat-NH2]”, the Kd in assay [1] (in the presence of 10 μg/mL poly(dI-dC), FIG. 9, read-out: KD of peptide and TAR-RNA by gel shift assay) was determined as 56 ± 12 nM.

As for “6-carboxyfluorescein-βAla-Tyr-Gly-Arg-Lys-Lys-Arg-Arg-Gln-Arg-Arg-Arg-NH2 [Flu-ArgTat, reference compound]”, the Mean fluorescence intensity in assay [3] (30 μM peptide) is 2170 ± 1692 a.u; in assay [3] (60 μM peptide) it was 5258 ± 2006 a.u; in assay [3] (90 μM peptide), 7042 ± 1475 a.u; in assay [3] (120 μM peptide) it was 8628 ± 3585 a.u. The “Cellular uptake seen in fluorescence microscopy images” value in assay [4] is “Obvious cellular uptake”.

As to “6-carboxyfluorescein-βAla-Tyr-Gly-Agb-Lys-Lys-Agb-Agb-Gln-Agb-Agb-Agb-NH2 [Flu-AgbTat]”, the “Uptake into cells compared to Flu-ArgTat and Flu-AghTat” value in assay [3] (7 μM peptide, 15 minutes, 37° C., fetal bovine serum, FIG. 2A) was 3 times. Further, in assay [4], the “Cellular uptake seen in fluorescence microscopy images” value was “Obvious cellular uptake”.

With “Ac-Tyr-Gly-Arg-Lys-Lys-Arg-Arg-Gln-Arg-Arg-Cit-NH2 [Tat-Cit57]”, the values for the Kd in assay [1] (setting [5]) and in assay [2] were 146 ± 30 nM and 49 ± 6 nM, respectively.

Turning to “6CF-βAla-Tyr-Gly-Arg-Lys-Lys-Arg-Arg-Gln-Arg-Cit-Arg-NH2 [6CF-Tat-Cit56]”, the Mean fluorescence intensity in assay [3] (30 μM peptide) came out at 429 ± 95 a.u; in assay [3] (60 μM peptide) it was 2305 ± 249 a.u; in assay [3] (90 μM peptide) it was 6094 ± 792 a.u; in assay [3] (120 μM peptide), 11617 ± 1339 a.u. The “Cellular uptake seen in fluorescence microscope images” value in assay [4] is “significant cellular uptake”.

Regarding “6CF-βAla-Tyr-Gly-Arg-Lys-Lys-Arg-Arg-Gln-Arg-Arg-Cit-NH2 [6CF-Tat-Cit57]”, the Mean fluorescence intensity in assay [3] (30 μM peptide) is given as 465 ± 72 a.u; in assay [3] (60 μM peptide), 1696 ± 167 a.u; in assay [3] (90 μM peptide), 4031 ± 377 a.u; in assay [3] (120 μM peptide), 4964 ± 811 a.u. Also, in assay [4], the “Cellular uptake seen in fluorescence microscope images” value is “significant cellular uptake”.

For “6CF-βAla-Tyr-Gly-Arg-Lys-Lys-Cit-Arg-Gln-Arg-Arg-Arg-NH2 [6CF-Tat-Cit52]”, the Mean fluorescence intensity in assay [3] (30 μM peptide) came out at 1221 ± 116 a.u; in assay [3] (60 μM peptide) it was 5332 ± 612 a.u; in assay [3] (90 μM peptide) it was 10040 ± 726 a.u; in assay [3] (120 μM peptide), 12378 ± 972 a.u. In addition, the “Cellular uptake seen in fluorescence microscope images” value in assay [4] was “significant cellular uptake”.

For the substance “6CF-βAla-Tyr-Gly-Arg-Lys-Lys-Arg-Cit-Gln-Arg-Arg-Arg-NH2 [6CF-Tat-Cit53]”, the Mean fluorescence intensity in assay [3] (30 μM peptide) is reported as 429 ± 19 a.u; in assay [3] (60 μM peptide), 3417 ± 288 a.u; in assay [3] (90 μM peptide), 6499 ± 109 a.u; in assay [3] (120 μM peptide), 10861 ± 1096 a.u. Besides, in assay [4], the “Cellular uptake seen in fluorescence microscope images” value is “significant cellular uptake”.

Regarding “6-carboxyfluorescein-βAla-Tyr-Gly-Agh-Lys-Lys-Agh-Agh-Gln-Agh-Agh-Agh-NH2 [Flu-AghTat]”, the “Cellular uptake compared to Flu-ArgTat” value in assay [3] (concentrations higher than 7 μM, FIG. 2B) is “more cellular uptake”. Further, in assay [4], the “Cellular uptake seen in fluorescence microscopy images” value was “Obvious cellular uptake”.

In the case of “Ac-Tyr-Gly-Arg-Lys-Lys-Cit-Arg-Gln-Arg-Arg-Arg-NH2 [Tat-Cit52]”, the Kd in assay [1] (setting [5]) came out at 235 ± 45 nM; in assay [2] it was 116 ± 17 nM.

With “Ac-Tyr-Gly-Cit-Lys-Lys-Arg-Arg-Gln-Arg-Arg-Arg-NH2 [Tat-Cit49]”, the Kd was found to be 138 ± 21 nM in assay [1] (setting [5]) and 94 ± 13 nM in assay [2].

Take “6CF-βAla-Tyr-Gly-Cit-Lys-Lys-Arg-Arg-Gln-Arg-Arg-Arg-NH2 [6CF-Tat-Cit49]”: the Mean fluorescence intensity in assay [3] (30 μM peptide) is reported as 1791 ± 555 a.u; in assay [3] (60 μM peptide), 6452 ± 740 a.u; in assay [3] (90 μM peptide), 13284 ± 1441 a.u; in assay [3] (120 μM peptide), 15784 ± 1567 a.u. The “Cellular uptake seen in fluorescence microscope images” value in assay [4] is “significant cellular uptake”.

Regarding “6CF-βAla-Tyr-Gly-Arg-Lys-Lys-Arg-Arg-Gln-Cit-Arg-Arg-NH2 [6CF-Tat-Cit55]”, the Mean fluorescence intensity was 793 ± 267 a.u in assay [3] (30 μM peptide), 5750 ± 134 a.u in assay [3] (60 μM peptide), 9090 ± 707 a.u in assay [3] (90 μM peptide) and 10152 ± 787 a.u in assay [3] (120 μM peptide). For the same substance, the “Cellular uptake seen in fluorescence microscope images” value in assay [4] is “significant cellular uptake”.

With “Ac-Tyr-Gly-Arg-Lys-Lys-Arg-Cit-Gln-Arg-Arg-Arg-NH2 [Tat-Cit53]”, the Kd came out at 344 ± 73 nM in assay [1] (setting [5]) and 102 ± 11 nM in assay [2].

Consider “Ac-Tyr-Gly-Arg-Lys-Lys-Arg-Arg-Gln-Cit-Arg-Arg-NH2 [Tat-Cit55]”, for which the Kd in assay [1] (setting [5]) was determined as 279 ± 74 nM; in assay [2], 99 ± 14 nM.

The values above are taken from US8524659B2, “RNA virus-derived peptides with modified side chains” (National Taiwan University, priority 2011, dated 2013).
